Reference: ChEMBL document CHEMBL1201862, “PubChem BioAssay data set” (2004)
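Values below derive from 48-hour exposures of cells grown in 96-well plates, with endpoints linearly interpolated between the two concentrations bracketing the appropriate inhibition level. GI50 = concentration required for 50% inhibition of growth.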 The source made the active and inactive calls. No stated cut-off is given here; in the data, active = GI50 up to about 1.1 µM and inactive = higher.

What was measured:
Test in all cases: NCI tumour cell line growth inhibition, 48 h
786-0 = test system: 786-0
A498 = test system: A498
A549 = test system: A549
ACHN = test system: ACHN
CAKI-1 = test system: CAKI-1
CCRF-CEM = test system: CCRF-CEM
DLD-1 = test system: DLD-1
DMS-114 = test system: DMS-114
DMS-273 = test system: DMS-273
EKVX = test system: EKVX
HCC 2998 = test system: HCC 2998
HCT-116 = test system: HCT-116
HCT-15 = test system: HCT-15
HL-60 = test system: HL-60
HOP-18 = test system: HOP-18
HOP-62 = test system: HOP-62
HT-29 = test system: HT-29
IGROV-1 = test system: IGROV-1
K562 = test system: K562
KM-20L2 = test system: KM-20L2
KM12 = test system: KM12
LOX IMVI = test system: LOX IMVI
LXFL 529 = test system: LXFL 529
M14 = test system: M14
M19-MEL = test system: M19-MEL
MOLT-4 = test system: MOLT-4
Malme-3M = test system: Malme-3M
NCI-H23 = test system: NCI-H23
NCI-H460 = test system: NCI-H460
OVCAR-4 = test system: OVCAR-4
OVCAR-5 = test system: OVCAR-5
OVCAR-8 = test system: OVCAR-8
RPMI-8226 = test system: RPMI-8226
RXF 393 = test system: RXF 393
RXF 631 = test system: RXF 631
SF-268 = test system: SF-268
SF-295 = test system: SF-295
SF-539 = test system: SF-539
SK-MEL-28 = test system: SK-MEL-28
SK-MEL-2 = test system: SK-MEL-2
SK-MEL-5 = test system: SK-MEL-5
SK-OV-3 = test system: SK-OV-3
SN12C = test system: SN12C
SNB-19 = test system: SNB-19
SNB-75 = test system: SNB-75
SNB-78 = test system: SNB-78
SR = test system: SR
SW-620 = test system: SW-620
TK-10 = test system: TK-10
U-251 = test system: U-251
UACC-257 = test system: UACC-257
UACC-62 = test system: UACC-62
UO-31 = test system: UO-31
XF498 = test system: XF498

## CSc1ccc(Cc2cc(C(C)(C)C)cc(C(C)(C)C)c2O)cc1
786-0
  GI50: 16.7 µM (inactive)
A498
  GI50: 15.6 µM (inactive)
A549
  GI50: 13.6 µM (inactive)
ACHN
  GI50: 15 µM (inactive)
CAKI-1
  GI50: 16.7 µM (inactive)
CCRF-CEM
  GI50: 15.5 µM (inactive)
DLD-1
  GI50: 13.8 µM (inactive)
DMS-114
  GI50: 13 µM (inactive)
DMS-273
  GI50: 13.7 µM (inactive)
EKVX
  GI50: 18.2 µM (inactive)
HCC 2998
  GI50: 18.5 µM (inactive)
HCT-116
  GI50: 10.8 µM (inactive)
HCT-15
  GI50: 14 µM
HL-60
  GI50: 8.67 µM (inactive)
HOP-18
  GI50: 19.6 µM (inactive)
HOP-62
  GI50: 20.6 µM (inactive)
HT-29
  GI50: 13.8 µM (inactive)
IGROV-1
  GI50: 13.8 µM (inactive)
K562
  GI50: 12 µM (inactive)
KM-20L2
  GI50: 14.6 µM (inactive)
KM12
  GI50: 11 µM (inactive)
LOX IMVI
  GI50: 10.4 µM (inactive)
LXFL 529
  GI50: 13.9 µM (inactive)
M14
  GI50: 15.1 µM (inactive)
M19-MEL
  GI50: 16.8 µM (inactive)
MOLT-4
  GI50: 8.07 µM (inactive)
Malme-3M
  GI50: 15.2 µM (inactive)
NCI-H23
  GI50: 14.5 µM (inactive)
NCI-H460
  GI50: 14 µM (inactive)
OVCAR-4
  GI50: 15.4 µM (inactive)
OVCAR-5
  GI50: 3.11 µM (inactive)
OVCAR-8
  GI50: 16.9 µM (inactive)
RPMI-8226
  GI50: 4.45 µM (inactive)
RXF 393
  GI50: 13.3 µM (inactive)
RXF 631
  GI50: 14.9 µM (inactive)
SF-268
  GI50: 15.8 µM (inactive)
SF-295
  GI50: 17.6 µM (inactive)
SF-539
  GI50: 17.3 µM (inactive)
SK-MEL-28
  GI50: 16.5 µM (inactive)
SK-MEL-2
  GI50: 3.88 µM (inactive)
SK-MEL-5
  GI50: 15.6 µM (inactive)
SK-OV-3
  GI50: 27 µM (inactive)
SN12C
  GI50: 15.1 µM (inactive)
SNB-19
  GI50: 16.3 µM (inactive)
SNB-75
  GI50: 16 µM (inactive)
SNB-78
  GI50: 14.9 µM (inactive)
SR
  GI50: 8.75 µM (inactive)
SW-620
  GI50: 16.1 µM (inactive)
TK-10
  GI50: 12.9 µM (inactive)
U-251
  GI50: 14.8 µM (inactive)
UACC-257
  GI50: 14.7 µM (inactive)
UACC-62
  GI50: 15.3 µM (inactive)
UO-31
  GI50: 17 µM (inactive)
XF498
  GI50: 17.8 µM (inactive)
